Test results as given in patent publication US20080009505A1, “Theanine derivatives, uses thereof and processes for the manufacture thereof” (Conopco Inc. d/b/a UNILEVER, priority 2006, published 2008).
Like-named read-outs stand apart in the source and are kept apart here.

Type: physicochemical
Conditions: pH 4; for Remaining: buffer
Method: 0.05 M citrate buffer with a pH of 4.0 at 20.3° C. was prepared. To this buffer were added 5.35 mM theanine and 2.675 mM of the theanine dimer. The resulting solution was held at 92° C. for two weeks with small samples being taken regularly for analysis with HPLC.

CCNC(=O)CCC1NC(=O)C(CCC(=O)NCC)NC1=O (stereo not drawn) [Theanine Dimer, N-ethyl-3-[5-(2-ethylcarbamoyl-ethyl)-3,6-dioxo-piperazin-2-yl]-propionamide]
Remaining (0 h): 2.68 mM
Remaining (2.5 h): 2.75 mM
Remaining (17.5 h): 2.80 mM
Remaining (26.3 h): 2.78 mM
Remaining (42 h): 2.99 mM
Remaining (50 h): 3.31 mM
Remaining (121.3 h): 3.36 mM
Remaining (137.3 h): 3.38 mM
Remaining (145.8 h): 3.51 mM
Remaining (161.6 h): 3.54 mM
Remaining (170.2 h): 3.59 mM
Remaining (185.8 h): 3.63 mM
Remaining (193.3 h): 3.80 mM
Stability compared with theanine: much more stable than theanine

CCNC(=O)CCC(N)C(=O)O (stereo not drawn) [Theanine, N-gamma-ethyl glutamine]
Remaining (0 h): 5.35 mM
Remaining (2.5 h): 4.83 mM
Remaining (17.5 h): 2.54 mM
Remaining (26.3 h): 1.83 mM
Remaining (42 h): 0.81 mM
Remaining (50 h): 0.05 mM
Remaining (121.3 h): 0.04 mM
Remaining (137.3 h): 0.03 mM
Remaining (145.8 h): 0.02 mM
Remaining (161.6 h): 0.01 mM
Remaining (170.2 h): 0.01 mM
Remaining (185.8 h): 0.01 mM
Remaining (193.3 h): 0.01 mM
